“Also recorded” adds a separate entry of the source.
Experiments:
Assay type in all cases: cell-based, human
AURKB = AURKB knock-down by siRNA against AURKB, western blot; conditions: LC319 cells
Method: (§1) Cells were lysed in lysis buffer; 50 mM Tris-HCl (pH 8.0), 150 mM NaCl, 0.5% NP-40, 0.5% deoxycholate-Na, 0.1% SDS, plus protease inhibitor (Protease Inhibitor Cocktail Set III; Calbiochem Darmstadt, Germany). An ECL western-blot analysis system was used (GE Healthcare Bio-sciences, Piscataway, N.J.), as previously described (Kato T, et al., Cancer Res. 2005 Jul. 1; 65(13):5638-46; Furukawa C, et al., Cancer Res. 2005 Aug. 15; 65(16):7102-10).
(§2) A vector-based RNA interference (RNAi) system, psiH1BX3.0, which was designed to synthesize siRNAs in mammalian cells was previously established (Suzuki C, et al., Cancer Res. 2003 Nov. 1; 63(21):7038-41; Kato T, et al., Cancer Res. 2005 Jul. 1; 65(13):5638-46; Furukawa C, et al., Cancer Res. 2005 Aug. 15; 65(16):7102-10; Suzuki C, et al., Cancer Res. 2005 Dec. 15; 65(24):11314-25. Ishikawa N, et al., Cancer Sci. 2006 August; 97(8):737-45; Takahashi K, et al., Cancer Res. 2006 Oct. 1; 66(19):9408-19; Hayama S, et al., Cancer Res. 2006 Nov. 1; 66(21):10339-48). 10 micrograms of siRNA-expression vector was transfected using 30 microliters of Lipofectamine 2000 (Invitrogen) into lung-cancer cell lines, LC319 and SBC-5. The transfected cells were cultured for seven days in the presence of appropriate concentrations of geneticin (G418), and the number of colonies was counted by Giemsa staining, and viability of cells was evaluated by MTT assay (cell-counting kit-8 solution; DOJINDO, Kumamoto, Japan), at 7 days after the G418 treatment. To confirm suppression of CDCA8 protein expression, western blotting was carried out with affinity-purified polyclonal antibody to CDCA8 according to the standard protocol. The target sequences of the synthetic oligonucleotides for RNAi were as follows:
Furthermore, to inhibit the AURKB activity in mammalian cells, siRNA oligos were constructed against AURKB (si-AURKB-#1 and -#2), as well as control siRNA oligos for EGFP. […]
#2: 5′-ACGCGGCACUUCACAAUUG-3′ (SEQ ID NO: 63)) in a final concentration of 100 nM. […] The cells were collected and analyzed after additional 72-hour culture.

CDCA8 [1] = assay: Western blot of endogenous CDCA8 protein after AURKB knock-down; conditions: LC319 cells
Method: as §1, §2
Furthermore, to inhibit the AURKB activity in mammalian cells, siRNA oligos were constructed against AURKB (si-AURKB-#1 and -#2), as well as control siRNA oligos for EGFP. The target sequences of the synthetic oligonucleotides for RNAi were as follows:
(§3) Cells seeded onto 10 cm-dishes were incubated in mixtures of both Lipofectamine (Invitrogen) and control 3 (5′-GAAGCAGCACGACUUCUUC-3′ (SEQ ID NO: 61)) or si-AURKBs (#1: 5′-CCAAACUGCUCAGGCAUAA-3′ (SEQ ID NO: 62);
(§4) #2: 5′-ACGCGGCACUUCACAAUUG-3′ (SEQ ID NO: 63)) in a final concentration of 100 nM. At 4 hours after transfection, the siRNA-lipofectamine mixtures were replaced with fresh media. The cells were collected and analyzed after additional 72-hour culture.

CDCA8 transcripts = assay: Semi-quantitative RT-PCR of CDCA8 transcript after AURKB knock-down; conditions: LC319 cells
Method: Total RNA was extracted from cultured cells and clinical tissues using Trizol reagent (Life Technologies, Inc., Gaithersburg, Md.) according to the manufacturer's protocol. Extracted RNAs and normal human tissue poly(A) RNAs were treated with DNase I (Nippon Gene, Tokyo, Japan) and reversely-transcribed using oligo (dT) primer and SuperScript II reverse transcriptase (Invitrogen, Carlsbad, Calif.). Semi-quantitative RT-PCR experiments were carried out with the following synthesized CDCA8-specific primers, AURKB-specific primers, E2F-1-specific primers, or with beta-actin (ACTB)-specific primers as an internal control:
as §3, §4

CDCA8 [2] = assay: RNA interference with si-CDCA8 vectors, western blot of CDCA8 protein; conditions: in comparison with two control siRNAs (EGFP, Luciferase)
Method: as §1
as §2, with “follows: […]” for “follows:”

LC319 cells [3] = assay: MTT assay after siRNA-expression vector transfection; conditions: 7 days after G418 treatment, vs control siRNAs
From the text: as §2, with “follows: […]” for “follows:”

SBC-5 cells [4] = assay: as above; conditions: 7 days after G418 treatment, vs control siRNAs
From the text: as §2, with “follows: […]” for “follows:”

LC319 cells [5] = assay: Colony formation assay after siRNA-expression vector transfection; conditions: Giemsa staining, vs control siRNAs
From the text: as §2, with “follows: […]” for “follows:”

SBC-5 cells [6] = assay: as above; conditions: Giemsa staining, vs control siRNAs
From the text: as §2, with “follows: […]” for “follows:”

| Substance | AURKB expression / AURKB protein (AURKB) | amount of CDCA8 protein (CDCA8 [1]) | level of CDCA8 transcripts (CDCA8 transcripts) | expression of endogenous CDCA8 proteins (CDCA8 [2]; LC319 cells) | expression of endogenous CDCA8 proteins (CDCA8 [2]; SBC-5 cells) | cell viability (MTT assay) (LC319 cells [3]) | cell viability (MTT assay) (SBC-5 cells [4]) | colony numbers (colony-formation assay) (LC319 cells [5]) | colony numbers (colony-formation assay) (SBC-5 cells [6]) | phosphorylation levels of CDCA8 (CDCA8 [1]) |
| --- | --- | --- | --- | --- | --- | --- | --- | --- | --- | --- |
| 5′-ACGCGGCACUUCACAAUUG-3′ (listed as RNA, chemistry not given here) [si-AURKB-#2] | Reduction | dramatically decreased | not influenced |  |  |  |  |  |  |  |
| 5′-CAGCAGAAGCTATTCAGAC-3′ (CAGCAGAAGCTATTCAGACTTCAAGAGAGTCTGAATAGCTTCTGCTG; expressed or natural sequence) [si-CDCA8-#1] |  |  |  | significantly suppressed | significantly suppressed | significant decreases | significant decreases | significant decreases | significant decreases |  |
| 5′-CCAAACUGCUCAGGCAUAA-3′ (listed as RNA, chemistry not given here) [si-AURKB-#1] | Reduction | dramatically decreased | not influenced |  |  |  |  |  |  |  |
| 5′-GCCGTGCTAACACTGTTAC-3′ (GCCGTGCTAACACTGTTACTTCAAGAGAGTAACAGTGTTAGCACGGC; expressed or natural sequence) [si-CDCA8-#2] |  |  |  | significantly suppressed | significantly suppressed | significant decreases | significant decreases | significant decreases | significant decreases |  |
| 5′-GGTGATTCACAGAGACATA-3′ (GGTGATTCACAGAGACATATTCAAGAGATATGTCTCTGTGAATCACC; expressed or natural sequence) [si-AURKB] | selectively knocked down; also recorded: Reduction | decreased | not influenced |  |  |  |  |  |  | decreased |

From patent publication US20100184047A1, “SCREENING AND THERAPEUTIC METHOD FOR NSCLC TARGETING THE CDCA8-AURKB COMPLEX” (ONCOTHERAPY SCIENCE, INC., priority 2007, published 2010)
